What was measured:
Experiment in all cases: relative viability (nuclei count vs DMSO), 5 days (fraction); higher = more cells survive
CUDC-101 + Decitabine = compound: C#Cc1cccc(Nc2ncnc3cc(OC)c(OCCCCCCC(=O)NO)cc23)c1 [CUDC-101] + Nc1ncn([C@H]2C[C@H](O)[C@@H](CO)O2)c(=O)n1 [Decitabine] (partner 2 µM)
Summary of the method: (§1)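 Dosing by pin tool came one day after lung cancer cell lines were seeded in 1536-well plates, using either one drug or a fixed anchor-drug dose plus five library-drug doses (not always all listed) in √10 steps. After 5 days, nuclei were counted on 4× images. Relative viability is treated-well nuclei count divided by vehicle-well nuclei count, and values are medians of duplicate plates.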

[1] = compound: C1=CC=C2C(=C1)N=C(S2)C(C#N)C3=NC(=NC=C3)NCCC4=CN=CC=C4 + Cc1nc(NC(=O)N2CCC[C@H]2C(N)=O)sc1-c1ccnc(C(C)(C)C(F)(F)F)c1 [Alpelisib] (partner 2 µM)
Summary of the method: as §1

NVP-TAE684 + Trametinib = compound: COc1cc(N2CCC(N3CCN(C)CC3)CC2)ccc1Nc1ncc(Cl)c(Nc2ccccc2S(=O)(=O)C(C)C)n1 [NVP-TAE684] + CC(=O)Nc1cccc(-n2c(=O)n(C3CC3)c(=O)c3c(Nc4ccc(I)cc4F)n(C)c(=O)c(C)c32)c1 [Trametinib] (partner 0.02 µM)
Summary of the method: as §1

NVP-TAE684 + Phenformin = compound: COc1cc(N2CCC(N3CCN(C)CC3)CC2)ccc1Nc1ncc(Cl)c(Nc2ccccc2S(=O)(=O)C(C)C)n1 [NVP-TAE684] + N=C(N)NC(=N)NCCc1ccccc1 [Phenformin] (partner 250 µM)
Summary of the method: as §1

Cell Line	relative viability (CUDC-101 + Decitabine; first compound 0.01 µM)	relative viability (CUDC-101 + Decitabine; first compound 0.03162 µM)	relative viability (CUDC-101 + Decitabine; first compound 0.1 µM)	relative viability (CUDC-101 + Decitabine; first compound 0.3162 µM)	relative viability (CUDC-101 + Decitabine; first compound 1 µM)	relative viability ([1]; first compound 0.005 µM)	relative viability ([1]; first compound 0.01581 µM)	relative viability ([1]; first compound 0.05 µM)	relative viability ([1]; first compound 0.1581 µM)	relative viability ([1]; first compound 0.5 µM)	relative viability (NVP-TAE684 + Trametinib; first compound 0.2 µM)	relative viability (NVP-TAE684 + Trametinib; first compound 0.6325 µM)	relative viability (NVP-TAE684 + Trametinib; first compound 2 µM)	relative viability (NVP-TAE684 + Phenformin; first compound 0.2 µM)	relative viability (NVP-TAE684 + Phenformin; first compound 0.6325 µM)	relative viability (NVP-TAE684 + Phenformin; first compound 2 µM)
EKVX	0.322	0.446	0.33	0.323	0.299	0.763	0.981	0.902	0.844	0.69	0.285	0.241	0.334	0.24	0.23	0.208
NCI-H322M	0.65	0.686	0.625	0.651	0.517	0.825	0.77	0.68	0.899	0.709	0.589	0.447	0.294	0.731	0.705	0.52
SK-MES-1	0.349	0.466	0.332	0.392	0.261	1.17	0.979	1.12	1.14	0.859	0.578	0.492	0.378	0.642	0.686	0.453
NCI-H1355	0.359	0.313	0.358	0.355	0.313	0.852	0.901	0.823	0.883	0.633	0.399	0.398	0.3	0.431	0.391	0.327
NCI-H2126	0.564	0.572	0.597	0.567	0.519	0.722	0.734	0.773	0.765	0.793	0.628	0.637	0.388	0.53	0.468	0.361
NCI-H520	0.49	0.622	0.478	0.513	0.318	0.508	1.09	0.793	1.13	0.665	0.73	0.695	0.204	0.553	0.451	0.242
NCI-H1755	0.695	0.748	0.83	0.755	0.64	0.839	1	0.959	1.03	0.849	0.769	0.846	0.729	0.631	0.537	0.512
NCI-H358	0.209	0.204	0.174	0.206	0.112	0.603	0.795	0.802	0.981	0.744	0.147	0.107	0.0912	0.285	0.226	0.0829
NCI-H2347	0.636	0.585	0.672	0.591	0.576	1.1	0.992	0.954	1.05	1.18	0.275	0.264	0.355	0.252	0.302	0.294
HCC-15	0.579	0.628	0.655	0.621	0.443	0.927	0.833	0.905	0.954	0.853	0.355	0.418	0.186	0.495	0.396	0.238
NCI-H23	0.317	0.321	0.346	0.307	0.543	–	0.74	0.582	0.845	0.725	0.493	0.333	0.208	0.987	0.757	0.518
LC-2-ad	0.872	0.774	0.829	0.717	0.621	0.768	0.867	0.822	0.966	0.734	0.881	0.926	0.669	0.574	0.5	0.456
LCLC-97TM1	0.286	0.24	0.227	0.228	0.191	0.217	0.208	0.257	0.257	0.217	0.202	0.219	0.09	0.4	0.382	0.113
HOP-62	0.288	0.238	0.224	0.22	0.229	0.966	1.34	1.09	1.3	1.21	0.404	0.338	0.377	0.545	0.734	0.788
NCI-H2085	0.642	0.552	0.634	0.568	0.551	0.87	0.875	0.912	0.959	0.867	0.579	0.503	0.4	0.753	0.694	0.694
NCI-H2087	0.245	0.313	0.256	0.251	0.237	1.06	1.14	0.979	1.14	1.05	0.175	0.211	0.168	0.501	0.436	0.33
NCI-H1395	0.794	0.756	0.773	0.709	0.66	1.14	–	0.939	1.04	1.21	1.09	1.15	0.944	0.462	0.411	0.404
COR-L 105	0.67	0.752	0.622	0.723	0.351	1.06	1.22	0.856	0.955	0.678	0.439	0.42	0.313	0.457	0.259	0.211
A-427	0.617	0.619	0.591	0.568	0.554	1.08	1.01	0.996	1.09	1.16	0.699	0.627	0.462	0.285	0.257	0.221
NCI-H1975	0.398	0.451	0.389	0.391	0.374	0.352	0.669	0.62	0.668	0.403	0.325	0.335	0.215	0.422	0.367	0.24

Cell Line	relative viability (CUDC-101 + Decitabine; first compound 0.01 µM)	relative viability (CUDC-101 + Decitabine; first compound 0.03162 µM)	relative viability (CUDC-101 + Decitabine; first compound 0.1 µM)	relative viability (CUDC-101 + Decitabine; first compound 0.3162 µM)	relative viability (CUDC-101 + Decitabine; first compound 1 µM)	relative viability ([1]; first compound 0.005 µM)	relative viability ([1]; first compound 0.01581 µM)	relative viability ([1]; first compound 0.05 µM)	relative viability ([1]; first compound 0.1581 µM)	relative viability ([1]; first compound 0.5 µM)	relative viability (NVP-TAE684 + Trametinib; first compound 0.2 µM)	relative viability (NVP-TAE684 + Trametinib; first compound 0.6325 µM)	relative viability (NVP-TAE684 + Trametinib; first compound 2 µM)	relative viability (NVP-TAE684 + Phenformin; first compound 0.2 µM)	relative viability (NVP-TAE684 + Phenformin; first compound 0.6325 µM)	relative viability (NVP-TAE684 + Phenformin; first compound 2 µM)
NCI-H1993	0.62	0.548	0.602	0.586	0.488	0.671	0.692	0.645	0.652	0.747	0.359	0.461	0.521	0.508	0.467	0.519
NCI-H2023	0.222	0.248	0.188	0.212	0.193	0.625	0.659	0.649	0.681	0.404	0.462	0.498	0.155	0.449	0.415	0.19
201T	0.835	0.863	0.844	0.842	0.828	0.995	1.08	1.04	1.03	0.967	0.712	0.716	0.629	0.421	0.437	0.38
LK-2	0.262	0.329	0.384	0.2	0.125	–	–	0.993	1.3	1.11	–	0.673	0.326	0.364	0.238	0.233
SW 1573	0.552	0.514	0.489	0.593	0.264	0.628	0.726	–	0.803	0.686	0.651	0.495	0.21	0.307	0.249	0.128
NCI-H647	0.267	0.326	0.308	0.335	0.24	–	1.18	0.876	1.41	0.599	0.483	0.489	0.216	0.309	0.423	0.189
HCC-78	0.738	0.591	0.719	0.624	0.433	0.366	0.316	0.353	0.366	0.378	0.603	0.57	0.401	0.658	0.442	0.422
NCI-H727	1.19	0.906	0.944	0.989	0.695	0.508	0.508	0.566	0.565	0.409	0.406	0.349	0.308	0.512	0.641	0.341
BEN	0.724	0.656	0.709	0.649	0.498	0.763	1.1	0.931	0.99	0.932	0.983	0.912	–	0.257	0.285	0.231
NCI-H650	0.359	0.366	0.323	0.286	0.264	0.859	1.22	1.04	1.18	1.2	1.08	0.951	0.726	0.462	0.371	0.325
NCI-H441	0.303	0.305	0.262	0.242	0.236	–	0.623	0.803	1.27	0.487	0.359	0.333	0.263	0.574	0.755	0.258
NCI-H1793	0.388	0.493	0.467	0.431	0.435	0.692	0.521	0.55	0.763	0.739	0.468	0.303	0.414	0.35	0.371	0.26
NCI-H1915	0.262	0.267	0.28	0.248	0.23	0.997	1.05	1.04	1.12	1.05	0.298	0.304	0.507	0.332	0.343	0.369
HCC-366	0.335	0.33	0.339	0.383	0.354	0.428	0.475	0.314	0.475	0.389	0.352	0.374	0.14	0.66	0.629	0.588
NCI-H1792	0.561	0.437	0.602	0.553	0.424	–	0.817	0.696	0.891	0.517	0.413	0.388	0.271	0.268	0.25	0.159
LCLC-103H	0.692	0.695	0.722	0.657	0.633	0.926	0.983	0.971	0.901	0.915	0.692	0.693	0.603	0.297	0.356	0.276
SK-LU-1	0.671	0.646	0.677	0.729	0.609	–	0.962	0.824	1.27	0.858	0.42	0.445	0.383	0.577	0.413	0.303
NCI-H1666	0.769	0.734	0.693	0.752	0.61	0.915	0.971	0.876	1.11	0.892	0.818	0.836	0.714	0.564	0.505	0.501
COR-L23	0.432	0.383	0.332	0.376	0.164	0.748	0.756	0.841	0.877	0.742	0.547	0.484	0.222	0.329	0.406	0.201
NCI-H460	0.522	0.459	0.423	0.533	0.433	–	0.508	0.503	0.579	0.309	0.173	0.16	0.0273	0.354	0.547	0.0633

Source: the supplement of paper PMC10307832
